{"source": "paper PMC8000724", "about": "“Trans-Epithelial Transport, Metabolism, and Biological Activity Assessment of the Multi-Target Lupin Peptide [sequence] (P5) and Its Metabolite [sequence] (P5-Met)” (Nutrients, 2021)", "key": {"[1]": {"system": "differentiated Caco-2 cells (AP membrane peptidases)", "test": "Metabolites of P5 produced by Caco-2 cell peptidases, MS analysis of AP solutions", "assay_type": "in vitro ADME, human", "parameters": "key to Metabolite of P5 identified in the AP compartment: Mixture / Metabolite of P5 identified in the AP compartment: Alone: x, detected; n.d., not detected", "experimental": "Prior to experiments, the cell monolayer integrity and differentiation were checked by TEER measurement as described in detail above. Peptide trans-epithelial passage was assayed in differentiated Caco-2 cells in transport buffer solution (137 mM NaCl, 5.36 mM KCl, 1.26 mM CaCl2, and 1.1 mM MgCl2, 5.5 mM glucose) according to previously described conditions. In order to reproduce the pH conditions existing in vivo in the small intestinal mucosa, the apical (AP) solutions were maintained at pH 6.0 (buffered with 10 mM morpholinoethane sulfonic acid), and the basolateral (BL)solutions were maintained at pH 7.4 (buffered with 10 mM […]). Prior to transport experiments, cells were washed twice with 500 µL PBS containing Ca^++ and Mg^++. Peptide transportation by mature Caco-2 cells was assayed by loading the AP compartment with P5 alone, in mixture with […] (P3) and […] (P7), and/or P5-met (500 μM) in the AP transport solution (500 µL) and the BL compartment with the BL transport solution (700 µL). The plates were incubated at 37 °C and the BL solutions were collected at different time points (i.e., 15, 30, 60, 90, and 120 min) and replaced with fresh solutions pre-warmed at 37 °C. All BL and AP solutions collected at the end of the transport experiment were stored at −80 °C prior to analysis. Three independent transport experiments were performed, each in duplicate. In order to assess the involvement of transcytotic process in peptides passage, parallel transport experiments were performed in the presence of 500 nM wortmannin in both the AP and BL compartment, over 60 min incubation time.\nThe medium collected at the end of transport experiments from AP and BL chambers (500 µL and 700 µL, respectively) were freeze-dried and residues were solubilized in HPLC water (100 µL). Samples were desalted with C18 resin ZipTip by using 80% ACN, 0.1% FA as eluent (Millipore Corporation, Bedford, MA, USA). Each sample was lyophilized under speed-vacuum for 5 h at 30°C and re-dissolved in 50 μL (0.1% formic acid), before MS analysis. Purified BL samples were analyzed on a SL IT mass spectrometer interfaced with a HPLC- Chip Cube source (Agilent Technologies, Palo Alto, CA, USA). Data were processed with MSD Trap control 4.2, and Data analysis 4.2 version (Agilent Technologies, Palo Alto, CA, USA). The chromatographic separation was performed using a 1200 HPLC system equipped with a binary pump. […] Specifically, The monitored MRM transitions of P5-met were from the mono-charged precursor ion [M^+H]^+ (m/z 882.43) to product-ions m/z 678.3 and 407.1, respectively. […]"}, "[2]": {"system": "LDLR", "test": "Western blot, LDLR protein level in HepG2 cells", "assay_type": "cell-based, human", "settings": "HepG2, 50 µM, 24 h, mean ± SD", "experimental": "The HepG2 cell line was bought from ATCC (HB-8065, ATCC from LGC Standards, Milan, Italy) and was cultured in DMEM high glucose with stable L-glutamine, supplemented with 10% FBS, 100 U/mL penicillin, 100 µg/mL streptomycin (complete growth medium) with incubation at 37 °C under 5% CO2 atmosphere.\nImmunoblotting experiments were performed using optimized protocol. A total of 1.5 × 10^5 HepG2 cells/well (24-well plate) were treated with 50 μM of P5 and P5-met for 24 h. After each treatment, the supernatants were collected and stored at −20°C; cells were scraped in 40 µL ice-cold lysis buffer (RIPA buffer + inhibitor cocktail + 1:100 PMSF + 1:100 Na-orthovanadate + 1:1000 β-mercaptoethanol) and transferred in ice-cold microcentrifuge tubes. […] Total proteins were quantified by the Bradford’s method and 50 μg of total proteins loaded on a pre-cast 7.5% Sodium Dodecyl Sulfate-Polyacrylamide (SDS-PAGE) gel at 130 V for 45 min. […] Target proteins, on milk or BSA blocked membrane, were detected by primary antibodies as follows: anti-SREBP-2, anti-LDLR, anti-HMGCoAR, anti-PCSK9, anti HNF1-α and anti-β-actin. Secondary antibodies conjugated with HRP and a chemiluminescent reagent were used to visualize target proteins and their signal was quantified using the Image Lab Software (Biorad, Hercules, CA, USA). […]"}}, "data": [{"substance": "H-LPKHSDAD-OH [Peptide P5-met]", "values": [{"measurement": "Spectral Intensity of the metabolite in the AP compartment", "setting": "[1]; Caco-2, AP compartment, end of incubation 120 min, used as measure of metabolite abundance", "value": "1.21 × 10^7"}, {"measurement": "Metabolite of P5 identified in the AP compartment: Alone", "setting": "[1]; P5 incubated alone (500 μM), Caco-2, end of incubation 120 min", "value": "x"}, {"measurement": "Metabolite of P5 identified in the AP compartment: Mixture", "setting": "[1]; P5 incubated in mixture with P3 and P7 (500 μM each), Caco-2, end of incubation 120 min", "value": "x"}, {"measurement": "LDLR protein level versus the control", "setting": "[2]", "value": "150.4 ± 29.2", "unit": "%"}]}]}
